Assay results: patent US12690589B2, “Herbicidal compositions comprising pyroxasulfone” (BASF SE, priority 2024, dated 2026)

How the values were obtained:
Assay in all cases: Post-emergence application in field trials, herbicidal activity (damage scale 0 to 100%)
Format in all cases: in vivo
[1] = test system: Echinochloa crus-galli (ECHCG)
Method: (§1) In the examples below, using the method of S. R. Colby (1967) “Calculating synergistic and antagonistic responses of herbicide combinations”, Weeds 15, p. 22ff., the value E, which is expected if the activity of the individual active compounds is only additive, was calculated:
(§2) [formula] • wherein • X=percent activity using active herbicide A at an application rate a; • Y=percent activity using active herbicide B (e.g. pyroxasulfone) at an application rate b; • E=expected activity (in %) by A+B at application rates a+b.
(§3) If the value found experimentally is higher than the value E calculated according to Colby, a synergistic effect is present.
(§4) On field test sites, natural weed infestation or seeded weeds were treated post-emergence of the weeds.
(§5) In the field trials, the weeds were treated as indicated below.
(§6) In the following experiments, the herbicidal activity for the individual herbicidal compositions (solo and mixture applications) was assessed at the indicated days after treatment (DAT). The assessments for the damage on undesired weeds caused by the composition was carried out using a scale from 0 to 100%, compared to the untreated control plants. Here, 0 means no damage and 100 means complete destruction of the plants.
Herbicide A-1 (50 g/l) and pyroxasulfone (85% WG) were, together with addition of 0.5% MSO (methylated seed oil) as adjuvant, formulated in water as distribution medium (water volume 200 l/ha) and sprayed with commercial flat fan nozzles.

[2] = test system: Setaria verticillata (SETVE)
Method: as §1, §2
(§7) For 3-component mixtures the synergistic response was calculated as described in: Ferry, Nancy; Stanley, Bruce H.; and Armel, Gregory (2005). “DESIGN AND ANALYSIS OF BIOLOGICAL ASSAYS OF MIXTURES,” Conference on Applied Statistics in Agriculture. https://doi.org/10.4148/2475-7772.1133. According to this publication, the Colby calculation can be generalized to a third mixing partner, Z, employing the following formula: […]
as §3, §4, §5, §6
(§8) Herbicide A-1 (342 g/l) and pyroxasulfone (500 g/l) were, together with addition of 0.25 v/v % MSO (methylated seed oil) as adjuvant, formulated in 200 l/ha water as distribution medium and sprayed with commercial flat fan nozzles.
(§9) Herbicide A-1 (342 g/l), pyroxasulfone (500 g/l) and trifludimoxazin (500 g/l) were, together with addition of 0.25 v/v % MSO (methylated seed oil) as adjuvant, formulated in 200 l/ha water as distribution medium and sprayed with commercial flat fan nozzles.
(§10) Herbicide A-1 (342 g/I), pyroxasulfone (500 g/l) and glyphosate-isopropylammonium (356 g/l) were, together with addition of 0.25 v/v % MSO (methylated seed oil) as adjuvant, formulated in 200 l/ha water as distribution medium and sprayed with commercial flat fan nozzles.
(§11) Herbicide A-1 (342 g/l), pyroxasulfone (500 g/l) and glufosinate-P-ammonium (211 g/l) were, together with addition of 0.25 v/v % MSO (methylated seed oil) as adjuvant, formulated in 200 l/ha water as distribution medium and sprayed with commercial flat fan nozzles.
(§12) Herbicide A-1 (342 g/l), pyroxasulfone (500 g/l) and 2,4-D-choline (456 g/l) were, together with addition of 0.25 v/v % MSO (methylated seed oil) as adjuvant, formulated in 200 l/ha water as distribution medium and sprayed with commercial flat fan nozzles.

[3] = test system: Hordeum vulgare (HORVW)
Method: as §1, §2, §7, §3, §4, §5, §6, §8, §9, §10, §11, §12

CCOC(=O)COc1ccccc1Oc1nc(-n2c(=O)cc(C(F)(F)F)n(C)c2=O)c(F)cc1Cl [A-1, ethyl 2-[2-[[3-chloro-5-fluoro-6-[3-methyl-2,6-dioxo-4-(trifluoromethyl)pyrimidin-1-yl]-2-pyridyl]oxy]phenoxy]acetate]
% Herbicidal activity ([1]; 7 DAT, stage 23-30, height 15-20 cm, g ai/ha A-1 12.5, B 70, C-12 252): 30% | % Herbicidal activity ([1]; 21 DAT, stage 23-30, height 15-20 cm, g ai/ha A-1 12.5, B 70, C-12 252): 30% | % Herbicidal activity ([1]; 28 DAT, stage 23-30, height 15-20 cm, g ai/ha A-1 12.5, B 70, C-12 252): 30% | % Herbicidal activity ([1]; ECHCG, height 20-25 cm, A-1 25 g ai/ha, 21 DAT, Table 2.3): 60% | % Herbicidal activity ([1]; Table 8.2, 21 DAT, stage 23-30, height 15-20 cm, g ai/ha A-1 18, B 70, C-12 1066): 30% | % Herbicidal activity ([1]; Table 8.2, 21 DAT, stage 23-30, height 15-20 cm, g ai/ha A-1 18, B 90, C-12 1066): 30% | % Herbicidal activity ([1]; Table 8.3, 28 DAT, stage 23-30, height 15-20 cm, g ai/ha A-1 18, B 70, C-12 1066): 30% | % Herbicidal activity ([1]; Table 8.3, 28 DAT, stage 23-30, height 15-20 cm, g ai/ha A-1 18, B 90, C-12 1066): 30% | % Herbicidal activity ([2]; 7 DAT, stage 21-23, height 8-16 cm, g ai/ha A-1 18, B 70, C-8 840): 75% | % Herbicidal activity ([2]; 7 DAT, stage 21-23, height 8-16 cm, g ai/ha A-1 18, B 70, C-12 252): 70% | % Herbicidal activity ([2]; 7 DAT, stage 21-23, height 8-16 cm, g ai/ha A-1 18, B 90, C-4 12.5): 80% | % Herbicidal activity ([2]; 7 DAT, stage 21-23, height 8-16 cm, g ai/ha A-1 18, B 90, C-8 840): 75% | % Herbicidal activity ([2]; 7 DAT, stage 21-23, height 8-16 cm, g ai/ha A-1 18, B 90, C-12 252): 70% | % Herbicidal activity ([2]; 21 DAT, stage 21-23, height 8-16 cm, g ai/ha A-1 18, B 90, C-12 252): 65% | % Herbicidal activity ([2]; 42 DAT, stage 21-23, height 8-16 cm, g ai/ha A-1 12.5, B 70): 50% | % Herbicidal activity ([2]; 42 DAT, stage 21-23, height 8-16 cm, g ai/ha A-1 12.5, B 70, C-12 252): 50% | % Herbicidal activity ([2]; 42 DAT, stage 21-23, height 8-16 cm, g ai/ha A-1 18, B 70): 70% | % Herbicidal activity ([2]; 42 DAT, stage 21-23, height 8-16 cm, g ai/ha A-1 18, B 90, C-12 252): 50% | % Herbicidal activity ([2]; SETVE, growth stage 21-23, height 8-16 cm, A-1 12.5 g ai/ha, 7 DAT, Table 4.1): 75% | % Herbicidal activity ([2]; SETVE, growth stage 21-23, height 8-16 cm, A-1 12.5 g ai/ha, 21 DAT, Table 4.3): 70% | % Herbicidal activity ([2]; SETVE, growth stage 21-23, height 8-16 cm, A-1 18 g ai/ha, 7 DAT, Table 4.1): 75% | % Herbicidal activity ([2]; SETVE, growth stage 21-23, height 8-16 cm, A-1 18 g ai/ha, 21 DAT, Table 4.3): 75% | % Herbicidal activity ([2]; Table 8.1, 7 DAT, stage 21-23, height 8-16 cm, g ai/ha A-1 18, B 70, C-12 1066): 75% | % Herbicidal activity ([2]; Table 8.2, 21 DAT, stage 21-23, height 8-16 cm, g ai/ha A-1 12.5, B 70, C-12 1066): 70% | % Herbicidal activity ([2]; Table 8.4, 42 DAT, stage 21-23, height 8-16 cm, g ai/ha A-1 12.5, B 70, C-12 1066): 60% | % Herbicidal activity ([3]; 7 DAT, stage 23-29, height 20-25 cm, g ai/ha A-1 12.5, B 70, C-12 252): 70% | % Herbicidal activity ([3]; 7 DAT, stage 23-29, height 20-25 cm, g ai/ha A-1 18, B 70, C-12 252): 70% | % Herbicidal activity ([3]; 7 DAT, stage 23-29, height 20-25 cm, g ai/ha A-1 18, B 90, C-12 252): 70% | % Herbicidal activity ([3]; 21 DAT, stage 23-29, height 20-25 cm, g ai/ha A-1 12.5, B 70, C-12 252): 70% | % Herbicidal activity ([3]; 21 DAT, stage 23-29, height 20-25 cm, g ai/ha A-1 18, B 70, C-12 252): 70% | % Herbicidal activity ([3]; 21 DAT, stage 23-29, height 20-25 cm, g ai/ha A-1 18, B 90, C-12 252): 70% | % Herbicidal activity ([3]; 28 DAT, stage 23-29, height 20-25 cm, g ai/ha A-1 12.5, B 70, C-12 252): 70% | % Herbicidal activity ([3]; 28 DAT, stage 23-29, height 20-25 cm, g ai/ha A-1 18, B 70, C-12 252): 70% | % Herbicidal activity ([3]; 28 DAT, stage 23-29, height 20-25 cm, g ai/ha A-1 18, B 90, C-12 252): 70% | % Herbicidal activity ([3]; HORVW, growth stage 23-29, height 20-25 cm, A-1 12.5 g ai/ha, 7 DAT, Table 4.2): 70% | % Herbicidal activity ([3]; HORVW, growth stage 23-29, height 20-25 cm, A-1 12.5 g ai/ha, 21 DAT, Table 4.4): 70% | % Herbicidal activity ([3]; HORVW, growth stage 23-29, height 20-25 cm, A-1 12.5 g ai/ha, 28 DAT, Table 4.5): 70% | % Herbicidal activity ([3]; HORVW, growth stage 23-29, height 20-25 cm, A-1 18 g ai/ha, 7 DAT, Table 4.2): 70%
